Experimental data as given in ChEMBL document CHEMBL3774325, “Design, synthesis, and structure-activity relationship study of glycyrrhetinic acid derivatives as potent and selective inhibitors against human carboxylesterase 2” (Eur J Med Chem, 2016).

Columns and labels:
Liver carboxylesterase 1 = target: T1, Liver carboxylesterase 1 (Homo sapiens, UniProt P23141); test: Inhibition of CE1 in human liver microsomes using 2-(2-Benzoyl-3-methoxyphenyl) benzothiazole as substrate preincubated for 10 mins followed by substrate addition measured after 30 mins by LC-UV analysis
T1 sequence (P23141 whole entry): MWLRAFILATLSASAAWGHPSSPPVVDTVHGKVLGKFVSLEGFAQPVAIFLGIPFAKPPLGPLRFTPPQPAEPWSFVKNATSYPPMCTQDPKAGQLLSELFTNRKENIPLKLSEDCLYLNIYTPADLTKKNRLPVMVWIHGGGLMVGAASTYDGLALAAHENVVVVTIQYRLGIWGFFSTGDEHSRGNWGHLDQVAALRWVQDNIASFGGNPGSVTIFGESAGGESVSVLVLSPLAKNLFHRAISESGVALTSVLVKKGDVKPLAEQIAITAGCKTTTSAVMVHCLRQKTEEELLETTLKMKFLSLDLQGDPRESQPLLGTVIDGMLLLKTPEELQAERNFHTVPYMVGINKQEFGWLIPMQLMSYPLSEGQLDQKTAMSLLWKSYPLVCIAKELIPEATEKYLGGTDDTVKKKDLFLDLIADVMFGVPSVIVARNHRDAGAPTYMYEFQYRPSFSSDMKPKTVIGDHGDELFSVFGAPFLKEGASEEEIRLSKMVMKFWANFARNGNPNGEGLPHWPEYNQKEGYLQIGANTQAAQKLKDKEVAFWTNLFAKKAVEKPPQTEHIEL

Cocaine esterase = target: T2, Cocaine esterase (Homo sapiens, UniProt O00748); test: Inhibition of CE2 in human liver microsomes using fluorescein diacetate as substrate preincubated for 10 mins followed by substrate addition measured after 30 mins by LC-UV analysis
T2 sequence (O00748 whole entry): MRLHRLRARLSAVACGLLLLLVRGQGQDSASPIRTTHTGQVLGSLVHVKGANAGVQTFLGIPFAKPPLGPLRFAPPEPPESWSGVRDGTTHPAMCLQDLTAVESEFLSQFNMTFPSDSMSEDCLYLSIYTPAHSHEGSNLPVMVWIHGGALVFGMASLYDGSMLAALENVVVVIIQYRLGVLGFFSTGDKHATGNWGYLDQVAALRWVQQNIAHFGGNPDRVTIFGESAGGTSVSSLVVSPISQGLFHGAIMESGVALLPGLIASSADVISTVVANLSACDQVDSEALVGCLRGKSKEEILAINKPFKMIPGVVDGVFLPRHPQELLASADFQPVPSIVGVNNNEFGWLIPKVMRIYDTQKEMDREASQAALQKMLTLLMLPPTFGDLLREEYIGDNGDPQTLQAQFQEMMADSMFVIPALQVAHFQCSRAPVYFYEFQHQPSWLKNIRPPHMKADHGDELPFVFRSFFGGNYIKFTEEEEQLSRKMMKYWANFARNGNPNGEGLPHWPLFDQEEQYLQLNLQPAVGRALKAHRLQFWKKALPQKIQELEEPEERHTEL

Homo sapiens = organism: Homo sapiens; test: Selectivity ratio of IC50 for CE1 in human liver microsomes to IC50 for CE2 in human liver microsomes

Row | IC50 (Liver carboxylesterase 1) [µM] | IC50 (Cocaine esterase) [µM] | SMILES | Ratio IC50 (Homo sapiens)
1 | 12.3 | 3.42 | CC(=O)O[C@H]1CC[C@]2(C)[C@H]3C(=O)C=C4[C@@H]5C[C@@](C)(C(=O)OCCN(C)C)CC[C@]5(C)CC[C@@]4(C)[C@]3(C)CC[C@H]2C1(C)C | 3.6
2 | 21 | – | CC1(C)[C@@H](O)CC[C@]2(C)[C@H]3C(=O)C=C4[C@@H]5C[C@@](C)(C(=O)O)CC[C@]5(C)CC[C@@]4(C)[C@]3(C)CC[C@@H]12 [ENOXOLONE] | –
3 | > 100 | > 100 | CC(=O)O[C@H]1CC[C@]2(C)[C@H]3C(=O)C=C4[C@@H]5C[C@@](C)(C#N)CC[C@]5(C)CC[C@@]4(C)[C@]3(C)CC[C@H]2C1(C)C | –
4 | 23.6 | – | CC1(C)C(=O)CC[C@]2(C)[C@H]3CC=C4[C@@H]5C[C@@](C)(C(=O)O)CC[C@]5(C)CC[C@@]4(C)[C@]3(C)CC[C@@H]12 | –
5 | 20.4 | – | CCOC(=O)[C@@]1(C)CC[C@]2(C)CC[C@]3(C)C(=CC[C@@H]4[C@@]5(C)CC[C@H](OC(=O)CCC(=O)O)C(C)(C)[C@@H]5CC[C@]43C)[C@@H]2C1 | –
6 | 3.47 | 4.31 | COc1cc2c(cc1CC=C(C)C)C(=O)C[C@@H](c1ccc(O)cc1)O2 [BAVACHININ A] | 0.8
7 | > 100 | 0.66 | CCOC(=O)[C@@]1(C)CC[C@]2(C)CC[C@]3(C)C(=CC(=O)[C@@H]4[C@@]5(C)CC[C@H](OC(=O)CCC(=O)O)C(C)(C)[C@@H]5CC[C@]43C)[C@@H]2C1 | 152
8 | 6.99 | 14.2 | CC1(C)[C@@H](O)CC[C@]2(C)[C@H]3C(=O)C=C4[C@@H]5C[C@@](C)(C(N)=O)CC[C@]5(C)CC[C@@]4(C)[C@]3(C)CC[C@@H]12 | 0.5
9 | 9.13 | 3.95 | CN(C)CCOC(=O)[C@@]1(C)CC[C@]2(C)CC[C@]3(C)C(=CC(=O)[C@@H]4[C@@]5(C)CC[C@H](O)C(C)(C)[C@@H]5CC[C@]43C)[C@@H]2C1 | 2.3
10 | 25.1 | 3.99 | CCOC(=O)[C@@]1(C)CC[C@]2(C)CC[C@]3(C)C(=CC[C@@H]4[C@@]5(C)CC[C@H](O)C(C)(C)[C@@H]5CC[C@]43C)[C@@H]2C1 | 6.3
11 | 11 | 7.36 | CC(=O)O[C@H]1CC[C@]2(C)[C@H]3C(=O)C=C4[C@@H]5C[C@@](C)(C(N)=O)CC[C@]5(C)CC[C@@]4(C)[C@]3(C)CC[C@H]2C1(C)C | 1.5

Row | SMILES | IC50 (Liver carboxylesterase 1) [µM] | IC50 (Cocaine esterase) [µM] | Ratio IC50 (Homo sapiens)
12 | CC(=O)O[C@H]1CC[C@]2(C)[C@H]3C(=O)C=C4[C@@H]5C[C@@](C)(C(=O)O)CC[C@]5(C)CC[C@@]4(C)[C@]3(C)CC[C@H]2C1(C)C [ACETOXOLONE] | 49.9 | – | –
13 | CC1(C)[C@@H](O)CC[C@]2(C)[C@H]3CC=C4[C@@H]5C[C@@](C)(C(=O)O)CC[C@]5(C)CC[C@@]4(C)[C@]3(C)CC[C@@H]12 | 10.5 | – | –
14 | CC1(C)C(=O)CC[C@]2(C)[C@H]3C(=O)C=C4[C@@H]5C[C@@](C)(C(=O)O)CC[C@]5(C)CC[C@@]4(C)[C@]3(C)CC[C@@H]12 | > 100 | > 100 | –
15 | COC(=O)[C@@]1(C)CC[C@]2(C)CC[C@]3(C)C(=CC(=O)[C@@H]4[C@@]5(C)CC[C@H](O)C(C)(C)[C@@H]5CC[C@]43C)[C@@H]2C1 | 22.4 | 5.61 | 4
16 | CCOC(=O)[C@@]1(C)CC[C@]2(C)CC[C@]3(C)C(=CC(=O)[C@@H]4[C@@]5(C)CC[C@H](O)C(C)(C)[C@@H]5CC[C@]43C)[C@@H]2C1 | 26.3 | 5.7 | 4.6
17 | O=[N+]([O-])c1ccc(OP(=O)(O)Oc2ccc([N+](=O)[O-])cc2)cc1 | 0.14 | – | –
